Assay [1] has as its target T1, full-length beta-Catenin (Uniprot ID P35222) (Homo sapiens, UniProt P35222).
T1 construct: 10 nM full-length beta-Catenin (Uniprot ID P35222)
T1 sequence (P35222 1-781): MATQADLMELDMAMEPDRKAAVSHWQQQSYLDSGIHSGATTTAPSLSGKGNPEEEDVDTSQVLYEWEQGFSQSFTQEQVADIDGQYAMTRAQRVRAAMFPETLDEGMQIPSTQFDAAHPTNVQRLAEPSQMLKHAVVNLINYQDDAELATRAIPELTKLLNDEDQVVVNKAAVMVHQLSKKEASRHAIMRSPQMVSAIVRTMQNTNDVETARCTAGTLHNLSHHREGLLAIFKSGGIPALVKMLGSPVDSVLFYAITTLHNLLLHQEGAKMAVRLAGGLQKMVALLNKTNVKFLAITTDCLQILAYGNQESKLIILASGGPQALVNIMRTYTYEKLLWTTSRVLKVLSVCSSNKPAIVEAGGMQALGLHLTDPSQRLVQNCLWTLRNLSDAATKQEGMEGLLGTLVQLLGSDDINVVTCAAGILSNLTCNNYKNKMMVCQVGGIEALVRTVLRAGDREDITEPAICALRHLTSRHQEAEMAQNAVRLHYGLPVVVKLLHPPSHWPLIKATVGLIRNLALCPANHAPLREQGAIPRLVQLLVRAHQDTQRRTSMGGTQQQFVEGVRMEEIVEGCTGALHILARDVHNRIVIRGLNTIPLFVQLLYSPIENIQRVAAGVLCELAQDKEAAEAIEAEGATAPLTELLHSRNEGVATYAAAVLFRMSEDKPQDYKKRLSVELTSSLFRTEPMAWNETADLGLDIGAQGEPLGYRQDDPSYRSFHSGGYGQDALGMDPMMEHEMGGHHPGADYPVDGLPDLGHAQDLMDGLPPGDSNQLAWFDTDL
As to the kind of experiment: Fluorescence polarization IC50 (beta-catenin / 5FAM-TCF4 10-53 competition). The format is binding. As to conditions: fluorescence polarization; read-out: beta-Catenin FP IC50.

Assay [2] deals with T2, beta-catenin/TCF4 engagement (Homo sapiens, UniProt P35222).
T2 construct: expressed in transfected cells; host or cells: HEK293
T2 sequence (P35222 1-781): T1 sequence (P35222 1-781)
As to the kind of experiment: Nano-BRET target engagement assay (B-cat-Halo & TCF4-Luc in HEK293 cells). In kind it is cell-based. Particulars: absolute IC50; read-out: NanoBRET Abs IC50. (In BRET a luciferase serves as donor, and the signal depends on an acceptor being close.)

As a reminder, the IC50 is the concentration needed to halve the response being measured. Turning to `CC(=O)N1CCC[C@]12CC=CCCCC1(CCCC=CCCCOC(=O)N3CC[C@@](C(=O)N[C@@H](Cc4ccsc4)C(=O)N[C@@H](Cc4csc5ccccc45)C(=O)N[C@@H](CCC(N)=O)C(N)=O)(C3)NC(=O)[C@H](Cc3c[nH]cn3)NC(=O)[C@H](Cc3ccccc3)NC(=O)[C@H](C)NC(=O)C(C)(C)NC(=O)[C@H]([C@@H](C)O)NC(=O)[C@H](CC(N)=O)NC1=O)NC(=O)[C@H](CC(C)(C)C)NC(=O)[C@H](CC(=O)O)NC2=O` (stereo partly drawn) [I-2410, Ac-PL3-Asp-Npg-B5-Asn-Thr-Aib-Ala-Phe-His-PyrS2-3Thi-BztA-Gln-NH2], the IC50 in assay [1] was 304 nM; in assay [2], above 20000 nM.
For `CC(=O)N1CCC[C@]12CC=CCCCC1(CCCC=CCCCOC(=O)N3CC[C@@](C(=O)N[C@@H](Cc4ccsc4)C(=O)N[C@@H](Cc4csc5ccccc45)C(=O)N[C@@H](Cc4c[nH]cn4)C(N)=O)(C3)NC(=O)[C@H](CC(N)=O)NC(=O)[C@H](Cc3ccccc3)NC(=O)[C@H](C)NC(=O)C(C)(C)NC(=O)[C@H]([C@@H](C)O)NC(=O)[C@H](CC(N)=O)NC1=O)NC(=O)[C@H](CC(C)(C)C)NC(=O)[C@H](CC(=O)O)NC2=O` (stereo partly drawn) [I-2414, Ac-PL3-Asp-Npg-B5-Asn-Thr-Aib-Ala-Phe-Asn-PyrS2-3Thi-BztA-His-NH2], in that order: 7 nM and above 20000 nM.
For `CC(=O)N1CCC[C@]12CC=CCCCC1(CCCC=CCCCOC(=O)N3CC[C@@](C(=O)N[C@@H](Cc4ccsc4)C(=O)N[C@@H](Cc4csc5ccccc45)C(=O)N[C@@H](CC(N)=O)C(N)=O)(C3)NC(=O)[C@H](CC(N)=O)NC(=O)[C@H](Cc3ccccc3)NC(=O)[C@H](C)NC(=O)C(C)(C)NC(=O)[C@H]([C@@H](C)O)NC(=O)[C@H](CC(N)=O)NC1=O)NC(=O)[C@H](CC(C)(C)C)NC(=O)[C@H](CC(=O)O)NC2=O` (stereo partly drawn) [I-2415, Ac-PL3-Asp-Npg-B5-Asn-Thr-Aib-Ala-Phe-Asn-PyrS2-3Thi-BztA-Asn-NH2], in that order: 147 nM and above 20000 nM.
For `CC(=O)N1CCC[C@]12CC=CCCCC1(CCCC=CCCCOC(=O)N3CC[C@@](C(=O)N[C@@H](Cc4ccsc4)C(=O)N[C@@H](Cc4ccc(Cl)c(Cl)c4)C(=O)N[C@@H](CCC(N)=O)C(N)=O)(C3)NC(=O)[C@H](CC(N)=O)NC(=O)[C@H](Cc3ccccc3)NC(=O)[C@H](C)NC(=O)C(C)(C)NC(=O)[C@H]([C@@H](C)O)NC(=O)[C@H](CC(N)=O)NC1=O)NC(=O)[C@H](CC(C)(C)C)NC(=O)[C@H](CC(=O)O)NC2=O` (stereo partly drawn) [I-2417, Ac-PL3-Asp-Npg-B5-Asn-Thr-Aib-Ala-Phe-Asn-PyrS2-3Thi-34C1F-Gln-NH2], in that order: 158 nM and 21600 nM.
For `CC(=O)N1CCC[C@]12CC=CCCCC1(CCCC=CCCCOC(=O)N3CC[C@@](C(=O)N[C@@H](Cc4ccccc4)C(=O)N[C@@H](Cc4csc5ccccc45)C(=O)N[C@@H](CCCCN)C(N)=O)(C3)NC(=O)[C@H](CC(C)C)NC(=O)[C@H](Cc3ccccc3)NC(=O)[C@H](C)NC(=O)[C@H](CCO)NC(=O)[C@H](CCC(N)=O)NC(=O)[C@H](CC(=O)O)NC1=O)NC(=O)[C@H](CC1CCCCC1)NC(=O)[C@H](CC(N)=O)NC2=O` (stereo partly drawn) [I-2419, Ac-PL3-Asn-Cha-B5-Asp-Gln-Hse-Ala-Phe-Leu-PyrS2-Phe-BztA-Lys-NH2], the IC50 in assay [1] was 203 nM; in assay [2] it was above 20000 nM.
For `CC(=O)N1CCC[C@]12CC=CCCCC1(CCCC=CCCCOC(=O)N3CC[C@@](C(=O)N[C@@H](Cc4ccccc4)C(=O)N[C@@H](Cc4csc5ccccc45)C(=O)N[C@@H](CCCCN)C(N)=O)(C3)NC(=O)[C@H](CC(C)C)NC(=O)[C@H](Cc3ccccc3)NC(=O)[C@H](C)NC(=O)[C@H](CCC(N)=O)NC(=O)[C@H](CCC(N)=O)NC(=O)[C@H](CC(=O)O)NC1=O)NC(=O)[C@H](CC1CCCCC1)NC(=O)[C@H](CC(N)=O)NC2=O` (stereo partly drawn) [I-2421, Ac-PL3-Asn-Cha-B5-Asp-Gln-Gln-Ala-Phe-Leu-PyrS2-Phe-BztA-Lys-NH2], in that order: 145 nM and above 20000 nM.

The values are drawn from US20240116985A1, “STAPLED PEPTIDES AND METHODS THEREOF” (priority 2020, published 2024).
